According to publication PMC7734590, “Identification of a Selective RelA Inhibitor Based on DSE-FRET Screening Methods” (International Journal of Molecular Sciences, 2020):
Where “and” joins values, the source holds several entries; their conditions need not be identical. Equal entries are not always repeated. Structures can show the parent of a compound that is named as a salt. Where two headings read alike, the source gives them in different places.

Assays:
p52 = biological target: T1, p52 (Homo sapiens, UniProt Q00653); test: DSE-FRET p52–DNA binding inhibition; assay type: biochemical; parameters: p52 Retest % Inhibition Run2 / p52 Retest % Inhibition Avg. / Kinetic assay p52 Inhibition % ΔRFU(60 min-0 min) / p52 HTS % Inhibition / p52 Retest % Inhibition Run1: dose or concentration left out as unconfirmed
T1 sequence (Q00653 1-454 limits assumed): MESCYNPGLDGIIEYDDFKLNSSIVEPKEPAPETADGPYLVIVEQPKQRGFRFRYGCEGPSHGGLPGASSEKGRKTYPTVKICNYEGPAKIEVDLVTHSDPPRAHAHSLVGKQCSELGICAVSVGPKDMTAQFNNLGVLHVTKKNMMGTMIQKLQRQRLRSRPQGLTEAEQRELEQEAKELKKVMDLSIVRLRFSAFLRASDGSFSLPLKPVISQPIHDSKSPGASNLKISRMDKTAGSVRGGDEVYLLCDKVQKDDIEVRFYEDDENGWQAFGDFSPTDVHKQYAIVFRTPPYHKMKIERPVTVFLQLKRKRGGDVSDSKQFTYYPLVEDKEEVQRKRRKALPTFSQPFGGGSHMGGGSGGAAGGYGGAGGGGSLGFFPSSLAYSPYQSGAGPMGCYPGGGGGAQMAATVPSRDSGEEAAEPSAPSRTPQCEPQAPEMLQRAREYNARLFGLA

RelA = RelA (Homo sapiens, UniProt Q04206); test: DSE-FRET RelA–DNA binding inhibition; assay type: biochemical; parameters: Kinetic assay RelA Inhibition % ΔRFU(60 min-0 min) / RelA HTS % Inhibition / RelA Retest % Inhibition Run1 / RelA Retest % Inhibition Run2 / RelA Retest % Inhibition Avg. / Kinetic assay RelA % Inhibition ΔRFU(60 min-0 min): dose or concentration left out as unconfirmed
Sequence of RelA (Q04206 19-306 limits assumed): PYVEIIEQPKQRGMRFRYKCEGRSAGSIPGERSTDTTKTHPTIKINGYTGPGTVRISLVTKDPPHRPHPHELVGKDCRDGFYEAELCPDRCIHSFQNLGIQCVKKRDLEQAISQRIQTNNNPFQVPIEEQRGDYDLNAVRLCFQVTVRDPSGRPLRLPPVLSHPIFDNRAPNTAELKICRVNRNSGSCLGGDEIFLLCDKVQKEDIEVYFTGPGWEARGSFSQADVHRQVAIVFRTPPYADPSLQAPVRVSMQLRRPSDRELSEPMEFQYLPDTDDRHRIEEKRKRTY

[1] = HTS, known drugs, 10 µM, read-out: p52 HTS % Inhibition @ 10 µM
[2] = kinetic assay, 60 min-0 min, 10 µM, read-out: Kinetic assay @ 10 µM p52 % Inhibition ΔRFU(60 min-0 min)
[3] = retest, Run1, 10 µM, read-out: p52 Retest % Inhibition @ 10 µM Run1
[4] = retest, Run2, 10 µM, read-out: p52 Retest % Inhibition @ 10 µM Run2
[5] = retest, average of Run1 and Run2, 10 µM, read-out: p52 Retest % Inhibition @ 10 µM Avg.
[6] = HTS, known drugs, 10 µM, read-out: RelA HTS % Inhibition @ 10 µM
[7] = kinetic assay, 60 min-0 min, 10 µM, read-out: Kinetic assay @ 10 µM RelA % Inhibition ΔRFU(60 min-0 min)
[8] = retest, Run1, 10 µM, read-out: RelA Retest % Inhibition @ 10 µM Run1
[9] = retest, Run2, 10 µM, read-out: RelA Retest % Inhibition @ 10 µM Run2
[10] = retest, average of Run1 and Run2, 10 µM, read-out: RelA Retest % Inhibition @ 10 µM Avg.
[11] = Retest average of Run1 and Run2
[12] = retest of known drugs, 1 = judged hit

Kinetic assay p52 % Inhibition ΔRFU(60 min-0 min) (p52; kinetic assay, 60 min-0 min)	Kinetic assay RelA % Inhibition ΔRFU(60 min-0 min) (RelA; kinetic assay, 60 min-0 min)	SMILES	inhibition at 10 µM (p52; [1]) [%]	inhibition at 10 µM (p52; [2]) [%]	inhibition at 10 µM (p52; [3]) [%]	inhibition at 10 µM (p52; [4]) [%]	inhibition at 10 µM (p52; [5]) [%]	inhibition at 10 µM (RelA; [6]) [%]	inhibition at 10 µM (RelA; [7]) [%]	inhibition at 10 µM (RelA; [8]) [%]	inhibition at 10 µM (RelA; [9]) [%]	inhibition at 10 µM (RelA; [10]) [%]	further results
-0.806% and -5%	-4.24% and -5.31%	OCCN(CCO)c1nc(N2CCCCC2)c2nc(N(CCO)CCO)nc(N3CCCCC3)c2n1 [Dipyridamole]											
		COc1cccc2c1C(=O)c1c(O)c3c(c(O)c1C2=O)C[C@@](O)(C(=O)CO)C[C@@H]3O[C@H]1C[C@H](N)[C@@H](O)[C@H](C)O1 [EPIRUBICIN HYDROCHLORIDE]	88.4	-11	77.2	88.8	83	82.2	-11	77.3	88.4	82.9	
		Cc1cc(-c2ccc(/N=N/c3ccc4c(S(=O)(=O)O)cc(S(=O)(=O)O)c(N)c4c3O)c(C)c2)ccc1/N=N/c1ccc2c(S(=O)(=O)O)cc(S(=O)(=O)O)c(N)c2c1O [EVANS BLUE]	24	2.44	62.3	35.8	49	78.1	4.59	70.4	77.2	73.8	
-18%	-17%	O=C1Nc2ccc(I)cc2/C1=C/c1cc(Br)c(O)c(Br)c1 [GW 5074]											
		Cl[C@H]1[C@H](Cl)[C@@H](Cl)[C@@H](Cl)[C@H](Cl)[C@H]1Cl [LINDANE]	31.4	-1.69	5.5	6.4	5.9	29.3	-1.86	6.1	5.6	5.9	
1.64%	9%	O=C1C(Cl)=C(NCCN2CCOCC2)C(=O)c2ncccc21 [NSC 663284]											p52 HTS % Inhibition (p52; HTS, known drugs): 39.5%; p52 Retest % Inhibition Run1 (p52; Retest Run1): 24.9%; p52 Retest % Inhibition Run2 (p52; Retest Run2): 28.6%; p52 Retest % Inhibition Avg. (p52; [11]): 26.7%; Hit Judgement of: p52 (p52; [12]): 1; RelA HTS % Inhibition (RelA; HTS, known drugs): 37.5%; RelA Retest % Inhibition Run1 (RelA; Retest Run1): 37.2%; RelA Retest % Inhibition Run2 (RelA; Retest Run2): 41.8%; RelA Retest % Inhibition Avg. (RelA; [11]): 39.5%; Hit Judgement of: RelA (RelA; [12]): 1
		COC(=O)[C@@H]1c2cc3c(c(O)c2[C@@H](O[C@@H]2O[C@@H](C)[C@H](OC)[C@@](C)(OC)[C@H]2OC)C[C@]1(C)O)C(=O)c1c(O)cc2c(c1C3=O)O[C@@H]1O[C@@]2(C)[C@H](O)[C@@H](N(C)C)[C@@H]1O [Nogalamycin]											inhibition at 5 µg/mL (p52; HTS, 5 µg/mL, NPDepo hits, read-out: p52 HTS % Inhibition @ 5 µg/mL): 127%; inhibition at 5 µg/mL (p52; Retest Run1, 5 µg/mL, read-out: p52 Retest % Inhibition @ 5 µg/mL Run1): 132%; inhibition at 5 µg/mL (p52; Retest Run2, 5 µg/mL, read-out: p52 Retest % Inhibition @ 5 µg/mL Run2): 145%; inhibition at 5 µg/mL (p52; Retest average of Run1 and Run2, 5 µg/mL, read-out: p52 Retest % Inhibition @ 5 µg/mL Avg.): 139%; inhibition at 5 µg/mL (p52; kinetic assay, 5 µg/mL, ΔRFU 60 min-0 min, read-out: Kinetic assay @ 5 µg/mL p52 Inhibition % ΔRFU(60 min-0 min)): -13%; inhibition at 5 µg/mL (RelA; HTS, 5 µg/mL, NPDepo hits, read-out: RelA HTS % Inhibition @ 5 µg/mL): 128%; inhibition at 5 µg/mL (RelA; Retest Run1, 5 µg/mL, read-out: RelA Retest % Inhibition @ 5 µg/mL Run1): 138%; inhibition at 5 µg/mL (RelA; Retest Run2, 5 µg/mL, read-out: RelA Retest % Inhibition @ 5 µg/mL Run2): 146%; inhibition at 5 µg/mL (RelA; Retest average of Run1 and Run2, 5 µg/mL, read-out: RelA Retest % Inhibition @ 5 µg/mL Avg.): 142%; inhibition at 5 µg/mL (RelA; kinetic assay, 5 µg/mL, ΔRFU 60 min-0 min, read-out: Kinetic assay @ 5 µg/mL RelA Inhibition % ΔRFU(60 min-0 min)): -20%
		Cc1[nH]c(/C=C2\C(=O)Nc3ccc(S(=O)(=O)Cc4c(Cl)cccc4Cl)cc32)c(C)c1C(=O)N1CCC[C@@H]1CN1CCCC1 [PHA 665752]	103	-31	88	99.8	93.9	101	-27	88.6	99.1	93.9	

SMILES	Kinetic assay p52 % Inhibition ΔRFU(60 min-0 min) (p52; kinetic assay, 60 min-0 min)	Kinetic assay RelA % Inhibition ΔRFU(60 min-0 min) (RelA; kinetic assay, 60 min-0 min)	inhibition at 10 µM (p52; [1]) [%]	inhibition at 10 µM (p52; [2]) [%]	inhibition at 10 µM (p52; [3]) [%]	inhibition at 10 µM (p52; [4]) [%]	inhibition at 10 µM (p52; [5]) [%]	inhibition at 10 µM (RelA; [6]) [%]	inhibition at 10 µM (RelA; [7]) [%]	inhibition at 10 µM (RelA; [8]) [%]	inhibition at 10 µM (RelA; [9]) [%]	inhibition at 10 µM (RelA; [10]) [%]	further results
COc1cccc2c1C(=O)c1c(O)c3c(c(O)c1C2=O)C[C@@](O)(C(=O)CO)C[C@@H]3O[C@H]1C[C@H](N)[C@H](O)[C@H](C)O1 [Doxorubicin hydrochloride]	-15% and -17%	-15%											
